Target: human PCSK9 (Homo sapiens, UniProt Q8NBP7)
Assay: PCSK9 ligand binding assay (TR-FRET): interference with binding of human PCSK9 to human LDLR
Conditions: for IC50: Human PCSK9 Alexa Fluor 647 / Human LDLR extracellular domain-Europium Kryptate; for Max % inhibition: efficacy (Amax), 100% = 1 uM unlabeled human PCSK9, 0% = DMSO
Summary of the method: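 Read-out was TR-FRET ratio (665 nm over 615 nm, 330 nm excitation) between Alexa Fluor 647-human PCSK9 (16 nM added) and Europium Kryptate-human LDLR ectodomain (4 nM added). Compound and PCSK9 were mixed 30 min before LDLR, then incubated 2 h. Inhibition was normalised to DMSO and unlabelled-PCSK9 controls, giving IC50 and Amax.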

Sequence of human PCSK9 (Q8NBP7 153-692): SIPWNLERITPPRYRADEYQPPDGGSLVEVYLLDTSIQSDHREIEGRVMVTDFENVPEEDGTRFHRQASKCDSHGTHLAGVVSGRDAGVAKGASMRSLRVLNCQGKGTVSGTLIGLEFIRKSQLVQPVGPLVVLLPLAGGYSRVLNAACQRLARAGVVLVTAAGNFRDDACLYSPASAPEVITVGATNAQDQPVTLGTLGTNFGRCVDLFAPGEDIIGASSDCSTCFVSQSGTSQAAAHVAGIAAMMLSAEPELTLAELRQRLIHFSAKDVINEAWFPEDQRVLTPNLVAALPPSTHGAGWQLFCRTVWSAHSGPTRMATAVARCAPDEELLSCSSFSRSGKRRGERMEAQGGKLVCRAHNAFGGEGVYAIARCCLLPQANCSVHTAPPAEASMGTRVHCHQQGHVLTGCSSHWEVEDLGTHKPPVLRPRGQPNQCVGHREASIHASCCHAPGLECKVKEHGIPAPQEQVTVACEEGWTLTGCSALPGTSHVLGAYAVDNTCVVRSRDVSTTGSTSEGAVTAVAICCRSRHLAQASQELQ
Sequence of human PCSK9 (Q8NBP7 31-152 partner limits assumed): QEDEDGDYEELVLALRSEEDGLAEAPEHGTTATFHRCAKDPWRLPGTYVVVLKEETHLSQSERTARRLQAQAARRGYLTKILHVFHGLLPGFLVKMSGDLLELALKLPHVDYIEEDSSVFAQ

SMILES | IC50 | Max % inhibition
COC[C@@H]1NC(=O)[C@H](C)N(Cc2ccc(Cl)cc2Oc2ccc(-c3cnc(CN(C)C)n3C)cc2)C(=O)C[C@@H](Cc2ncco2)C(=O)N2CCC[C@@](Cc3ccc(Cl)cc3)(C2)NC1=O [Compound 35, (3R, 7S, 10S, 13R)-6-(4-chloro-2-(4-(2-((dimethylamino)methyl)-1-methyl-1H-imidazol-5-yl)phenoxy)benzyl)-13-(4-chlorobenzyl)-10-(methoxymethyl)-7-methyl-3-(oxazol-2-ylmethyl)-1,6,9,12-tetraazabicyclo[11.3.1]heptadecane-2,5,8,11-tetraone] | 0.914 nM | 105.0%
C[C@H]1C(=O)N[C@@H](CO)C(=O)N(C)[C@@]2(Cc3ccc(Cl)cc3)CCCN(C2)C(=O)[C@H](Cc2ccccn2)CC(=O)N1Cc1ccc(Cl)cc1Oc1ccc(-c2cnc(CN(C)C)n2C)cc1 [Compound 18, (3R,7S,10S,13R)-6-(4-Chloro-2-(4-(2-((dimethylamino)methyl)-1-methyl-1H-imidazol-5-yl)phenoxy)benzyl)-13-(4-chlorobenzyl)-10-(hydroxymethyl)-7,12-dimethyl-3-(pyridin-2-ylmethyl)-1,6,9,12-tetraazabicyclo[11.3.1]heptadecane-2,5,8,11-tetraone] | 0.549 nM | 104.5%
C[C@H]1C(=O)N[C@@H](CO)C(=O)N[C@@]2(Cc3ccc(Cl)cc3)CCCN(C2)C(=O)[C@H](CC(F)(F)F)CC(=O)N1Cc1c(F)cc(Cl)cc1Oc1ccc(-c2cnc(CNC3CCC3)n2C)cc1 [Compound 5, (3S, 7S, 10S, 13R)-6-(4-chloro-2-(4-(2-((cyclobutylamino)methyl)-1-methyl-1H-imidazol-5-yl)phenoxy)-6-fluorobenzyl)-13-(4-chlorobenzyl)-10-(hydroxymethyl)-7-methyl-3-(2,2,2-trifluoroethyl)-1,6,9,12-tetraazabicyclo[11.3.1]heptadecane-2,5,8,11-tetraone] | 0.4 nM | 101.9%
C/C=C/C[C@@H]1CC(=O)N(Cc2ccc(Cl)cc2Oc2ccc(-c3cnc(CN(C)C)n3C)cc2)[C@@H](C)C(=O)N[C@@H](CO)C(=O)N[C@@]2(Cc3ccc(Cl)cc3)CCCN(C2)C1=O [Compound 40, (3R,7S,10S,13R)-3-((E)-but-2-en-1-yl)-6-(4-Chloro-2-(4-(2-((dimethylamino)methyl)-1-methyl-1H-imidazol-5-yl)phenoxy)benzyl)-13-(4-chlorobenzyl)-10-(hydroxymethyl)-7-methyl-1,6,9,12-tetraazabicyclo[11.3.1]heptadecane-2,5,8,11-tetraone] | 0.6 nM | 107.8%
COC[C@@H]1NC(=O)[C@H](C)N(Cc2ccc(Cl)cc2Oc2ccc(-c3cnc(CNC(C)(C)C)n3C)cc2)C(=O)C[C@@H](CC(F)(F)F)C(=O)N2CCC[C@@](Cc3ccc(Cl)cc3)(C2)NC1=O [Compound 6, (3S, 7S, 10S, 13R)-6-(2-(4-(2-((tert-butylamino)methyl)-1-methyl-1H-imidazol-5-yl)phenoxy)-4-chlorobenzyl)-13-(4-chlorobenzyl)-10-(methoxymethyl)-7-methyl-3-(2,2,2-trifluoroethyl)-1,6,9,12-tetraazabicyclo[11.3.1]heptadecane-2,5,8,11-tetraone] | 0.956 nM | 119.9%
COC[C@@H]1NC(=O)[C@H](C)N(Cc2c(F)cc(Cl)cc2Oc2ccc(-c3cnc(CN(C)C)n3C)cc2)C(=O)C[C@@H](Cc2ccccn2)C(=O)N2CCC[C@@](Cc3ccc(Cl)cc3)(C2)N(C)C1=O [Compound 57, (3R,7S,10S,13R)-6-(4-Chloro-2-(4-(2-((dimethylamino)methyl)-1-methyl-1H-imidazol-5-yl)phenoxy)-6-fluorobenzyl)-13-(4-chlorobenzyl)-10-(methoxymethyl)-7,12-dimethyl-3-(pyridin-2-ylmethyl)-1,6,9,12-tetraazabicyclo[11.3.1]heptadecane-2,5,8,11-tetraone] | 0.763 nM | 115.6%
C[C@H](O)[C@@H]1NC(=O)[C@H](C)N(Cc2ccc(Cl)cc2Oc2ccc(-c3cnc(CN(C)C)n3C)cc2)C(=O)C[C@@H](CC(F)(F)F)C(=O)N2CCC[C@@](Cc3ccc(Cl)cc3)(C2)NC1=O [Compound 64, (3S,7S,10S,13R)-6-(4-chloro-2-(4-(2-((dimethylamino)methyl)-1-methyl-1H-imidazol-5-yl)phenoxy)benzyl)-13-(4-chlorobenzyl)-10-((S)-1-hydroxyethyl)-7-methyl-3-(2,2,2-trifluoroethyl)-1,6,9,12-tetraazabicyclo[11.3.1]heptadecane-2,5,8,11-tetraone] | 1.16 nM | 99.7%
C[C@H]1C(=O)N[C@@H](CO)C(=O)N(C)[C@@]2(Cc3ccc(Cl)cc3)CCCN(C2)C(=O)[C@H](CC(F)(F)F)CC(=O)N1Cc1ccc(Cl)cc1Oc1ccc(-c2cnc(CN(C)C)n2C)cc1 [Compound 20, (3S, 7S, 10S, 13R)-6-(4-chloro-2-(4-(2-((dimethylamino)methyl)-1-methyl-1H-imidazol-5-yl)phenoxy)benzyl)-13-(4-chlorobenzyl)-10-(hydroxymethyl)-7,12-dimethyl-3-(2,2,2-trifluoroethyl)-1,6,9,12-tetraazabicyclo[11.3.1]heptadecane-2,5,8,11-tetraone] | 0.187 nM | 117.5%
Cc1c(CN(C)C)ncn1-c1ccc(Oc2cc(Cl)ccc2CN2C(=O)C[C@@H]([C@@H]3CCc4ccccc43)C(=O)N3CCC[C@@](Cc4ccc(Cl)cc4)(C3)NC(=O)[C@H](CO)NC(=O)[C@@H]2C)cc1 [Compound 7, (3S, 7S, 10S, 13R)-6-(4-chloro-2-(4-(4-((dimethylamino)methyl)-5-methyl-1H-imidazol-1-yl)phenoxy)benzyl)-13-(4-chlorobenzyl)-3-((S)-2,3-dihydro-1H-inden-1-yl)-10-(hydroxymethyl)-7-methyl-1,6,9,12-tetraazabicyclo[11.3.1]heptadecane-2,5,8,11-tetraone] | 0.401 nM | 107.3%

Continued, values first:

IC50 | Max % inhibition | SMILES
0.93 nM | 100.4% | C[C@H]1C(=O)N[C@@H](CO)C(=O)N[C@@]2(Cc3ccc(Cl)cc3)CCCN(C2)C(=O)[C@H](CC2CC2)CC(=O)N1Cc1c(F)cc(Cl)cc1Oc1ccc(-c2cnc(CNC3CCC3)n2C)cc1 [Compound 153, (3R, 7S, 10S, 13R)-6-(4-chloro-2-(4-(2-((cyclobutylamino)methyl)-1-methyl-1H-imidazol-5-yl)phenoxy)-6-fluorobenzyl)-13-(4-chlorobenzyl)-3-(cyclopropylmethyl)-10-(hydroxymethyl)-7-methyl-1,6,9,12-tetraazabicyclo[11.3.1]heptadecane-2,5,8,11-tetraone]
2.08 nM | 98.4% | COc1cccc2c1OC[C@@H]2[C@@H]1CC(=O)N(Cc2ccc(Cl)cc2Oc2ccc(-c3cnc(CN4CCCC4)n3C)cc2)[C@@H](C)C(=O)N[C@@H](CO)C(=O)N(C)[C@H](Cc2ccc(Cl)cc2)CN(C)C1=O.Cl [Compound 103, (2S, 5S, 8R, 12S)-1-(4-chloro-2-(4-(1-methyl-2-(pyrrolidin-1-ylmethyl)-1H-imidazol-5-yl)phenoxy)benzyl)-8-(4-chlorobenzyl)-5-(hydroxymethyl)-12-((R)-7-methoxy-2,3-dihydrobenzofuran-3-yl)-2,7,10-trimethyl-1,4,7,10-tetraazacyclotetradecane-3,6,11,14-tetraone]
1.36 nM | 95.0% | C[C@H]1C(=O)N[C@@H](CO)C(=O)N[C@@]2(Cc3ccc(Cl)cc3)CCCN(C2)C(=O)[C@H]([C@@H]2CCc3ccccc32)CC(=O)N1Cc1cc(F)ccc1Oc1ccc(-c2cnc(CN(C)C)n2C)cc1 [Compound 73]
2.41 nM | 108.6% | C[C@H]1C(=O)N[C@@H](CO)C(=O)N[C@@]2(Cc3ccc(Cl)cc3)CCCN(C2)C(=O)[C@H](Cc2ccccc2)CC(=O)N1Cc1c(Cl)cc(Cl)cc1Oc1ccc(-c2cnc(CN(C)C)n2C)cc1 [Compound 98, (3R, 7S, 10S, 13R)-3-benzyl-13-(4-chlorobenzyl)-6-(2,4-dichloro-6-(4-(2-((dimethylamino)methyl)-1-methyl-1H-imidazol-5-yl)phenoxy)benzyl)-10-(hydroxymethyl)-7-methyl-1,6,9,12-tetraazabicyclo+11.3.111-tetraone]
6.12 nM | 97.0% | COC[C@@H]1NC(=O)[C@H](CCF)N(Cc2ccc(Cl)cc2Oc2ccc(-c3cnc(CN(C)C)n3C)cc2)C(=O)C[C@@H](Cc2ccccc2)C(=O)N2CCC[C@@](Cc3ccc(Cl)cc3)(C2)NC1=O.Cl [Compound 105, (3R,7S,10S,13R)-3-benzyl-6-(4-chloro-2-(4-(2-((dimethylamino)methyl)-1-methyl-1H-imidazol-5-yl)phenoxy)benzyl)-13-(4-chlorobenzyl)-7-(2-fluoroethyl)-10-(methoxymethyl)-1,6,9,12-tetraazabicyclo[11.3.1]heptadecane-2,5,8,11-tetraone hydrochloride]
231 nM | 100.3% | COC[C@@H]1NC(=O)[C@H](CCC(=O)N2CCC2)N(Cc2ccc(Cl)cc2Oc2ccc(-c3cnc(CN4CCCC4)n3C)cc2)C(=O)C[C@@H]([C@H]2CC(C)(C)c3ccccc32)C(=O)N(C)C[C@@H](Cc2ccc(Cl)cc2)N(C)C1=O.Cl [Compound 132, (2S,5S,8R,12S)-2-(3-(azetidin-1-yl)-3-oxopropyl)-1-(4-chloro-2-(4-(1-methyl-2-(pyrrolidin-1-ylmethyl)-1H-imidazol-5-yl)phenoxy)benzyl)-8-(4-chlorobenzyl)-12-((R)-3,3-dimethyl-2,3-dihydro-1H-inden-1-yl)-5-(methoxymethyl)-7,10-dimethyl-1,4,7,10-tetraazacyclotetradecane-3,6,11,14-tetraone hydrochloride]

— patent publication US11813306B2, “Cyclic tetramer compounds as proprotein convertase subtilisin/kexin type 9 (PCSK9) inhibitors for the treatment of metabolic disorders” (NOVARTIS AG, priority 2018, dated 2023)
